According to patent US12514832B2, “Methods for using low-dose colchicine after myocardial infarction” (INSTITUT DE CARDIOLOGIE DE MONTREAL, priority 2019, dated 2026):

System: patients recruited within 30 days after a myocardial infarction
Experiment: COLCOT randomized, double-blind, placebo-controlled trial: clinical efficacy end points
Type: in vivo, human
Set-up: Primary efficacy composite endpoint, % of patients with event: concentration or dose not given beside the values
Settings: for risk of ischemic cardiovascular events / primary composite efficacy end point versus placebo (in words): 0.5 mg once daily; for Total primary endpoint events, Rate Ratio (95% CI), Negative binomial model: marginal rate ratio
Protocol: We performed a randomized, double-blind trial involving patients recruited within 30 days after a myocardial infarction. The patients were randomly assigned to receive either low-dose colchicine (0.5 mg once daily) or placebo. A total of 4745 patients were enrolled; 2366 patients were assigned to the colchicine group, and 2379 to the placebo group. Patients were followed for a median of 22.6 months.
The primary efficacy end point was a composite of death from cardiovascular causes, resuscitated cardiac arrest, myocardial infarction, stroke, or urgent hospitalization for angina leading to coronary revascularization. The components of the primary end point and safety were also assessed.
In this randomized, double-blind, placebo-controlled, investigator-initiated trial, we assigned patients in a 1:1 ratio to receive either colchicine (at a dose of 0.5 mg once daily) or placebo. The trial protocol, available at NEJM.org, was designed by a trial steering committee. The protocol was approved by the institutional review board at each of the 167 centers in the 12 countries that participated in the trial (available at NEJM.org). All trial support activities, including project coordination, data management, site monitoring, and statistical oversight and analyses, were performed at the Montreal Health Innovations Coordinating Center. Potential trial end-point events were adjudicated by an independent clinical end-point committee composed of experienced cardiologists and neurologists who were unaware of the trial-group assignments. The trial was overseen by a data and safety monitoring board of independent experts. The trial medication and matching placebo were provided by Pharmascience.
Patients were excluded if they had severe heart failure, a left ventricular ejection fraction of less than 35%, stroke within the previous 3 months, a type 2 index myocardial infarction, coronary-bypass surgery either within the previous 3 years or planned, a history of noncutaneous cancer within the previous 3 years, inflammatory bowel disease or chronic diarrhea, neuromuscular disease or a nontransient creatine kinase level that was greater than three times the upper limit of the normal range (unless due to infarction), clinically significant nontransient hematologic abnormalities, severe renal disease with a serum creatinine level that was greater than two times the upper limit of the normal range; severe hepatic disease, drug or alcohol abuse, current or planned long-term systemic glucocorticoid therapy, or a history of clinically significant sensitivity to colchicine. (Details regarding eligibility criteria are provided herein.)
The primary efficacy end point was a composite of death from cardiovascular causes, resuscitated cardiac arrest, myocardial infarction, stroke, or urgent hospitalization for angina leading to coronary revascularization in a time-to-event analysis.
The secondary end points consisted of the components of the primary efficacy end point; a composite of death from cardiovascular causes, resuscitated cardiac arrest, myocardial infarction, or stroke; and total mortality in time-to-event analyses. Coronary revascularization, hospitalization for heart failure, atrial fibrillation, and deep venous thrombosis or pulmonary embolus were prespecified as exploratory end points in the protocol.
The efficacy analyses were conducted with the use of positively adjudicated data and according to the intention-to-treat principle. The primary end point was compared between the two trial groups with the use of a log-rank test, and the hazard ratio from a Cox proportional-hazards model, with a 95% confidence interval, was calculated. A Cox proportional-hazards model with adjustment for important baseline characteristics was also used as prespecified in the protocol.
The analysis of the primary end point was repeated in the per-protocol population (i.e., patients without major protocol deviations). […]

[1] = ITT, N=2366, first and recurrent events
[2] = colchicine vs placebo, ITT, listed as colchicine
[3] = colchicine vs placebo, per-protocol population
[4] = per-protocol population, N=2260

COc1cc2c(c(OC)c1OC)-c1ccc(OC)c(=O)cc1[C@@H](NC(C)=O)CC2 [Colchicine, colchicine]
risk of ischemic cardiovascular events / primary composite efficacy end point versus placebo (in words): statistically significant lower risk of ischemic cardiovascular events than placebo
risk of ischemic cardiovascular events / primary composite efficacy end point versus placebo (in words) (listed as colchicine): significantly lower percentage of patients with ischemic cardiovascular events than placebo
Time to first primary endpoint, Adjusted Hazard Ratio (95% CI) (Colchicine vs. Placebo, multivariable Cox regression adjusted for age, diabetes, prior revascularization, prior heart failure): 0.78 (0.62-0.98)
Atrial fibrillation, number of patients (ITT, N=2366, 0.5 mg once daily): 36
Atrial fibrillation, percent (ITT, N=2366, 0.5 mg once daily): 1.5%
Death from cardiovascular causes, number of patients (ITT, N=2366, 0.5 mg once daily): 20
Death from cardiovascular causes, percent (ITT, N=2366, 0.5 mg once daily): 0.8%
Death, number of patients (ITT, N=2366, 0.5 mg once daily): 43
Death, percent (ITT, N=2366, 0.5 mg once daily): 1.8%
Deep venous thrombosis or pulmonary embolus, number of patients (ITT, N=2366, 0.5 mg once daily): 10
Deep venous thrombosis or pulmonary embolus, percent (ITT, N=2366, 0.5 mg once daily): 0.4%
Myocardial infarction, number of patients (ITT, N=2366, 0.5 mg once daily): 89
Myocardial infarction, percent (ITT, N=2366, 0.5 mg once daily): 3.8%
Primary composite end point, number of patients (ITT, N=2366, 0.5 mg once daily): 131
Primary composite end point, percent of patients (ITT, N=2366, 0.5 mg once daily): 5.5%
Resuscitated cardiac arrest, number of patients (ITT, N=2366, 0.5 mg once daily): 5
Resuscitated cardiac arrest, percent (ITT, N=2366, 0.5 mg once daily): 0.2%
Secondary composite end point (CV death, resuscitated cardiac arrest, MI, stroke), number of patients (ITT, N=2366, 0.5 mg once daily): 111
Secondary composite end point, percent (ITT, N=2366, 0.5 mg once daily): 4.7%
Stroke, number of patients (ITT, N=2366, 0.5 mg once daily): 5
Stroke, percent (ITT, N=2366, 0.5 mg once daily): 0.2%
Urgent hospitalization for angina leading to revascularization, number of patients (ITT, N=2366, 0.5 mg once daily): 25
Urgent hospitalization for angina leading to revascularization, percent (ITT, N=2366, 0.5 mg once daily): 1.1%
Total number of primary endpoint events (first and recurrent) (ITT, N=2366, 52949 patient-months of follow-up): 154
Number of patients with 0 primary endpoint events [1]: 2235
Number of patients with 1 primary endpoint event [1]: 111
Number of patients with 2 primary endpoint events [1]: 18
Number of patients with 3 primary endpoint events [1]: 1
Number of patients with 4 primary endpoint events [1]: 1
Rate of primary endpoint events per 100 patient-months [1]: 0.29 per 100 patient-months
Atrial fibrillation, Hazard Ratio (95% CI) (colchicine vs placebo, ITT): 0.93 (0.59-1.46)
Death from cardiovascular causes, Hazard Ratio (95% CI) (colchicine vs placebo, ITT): 0.84 (0.46-1.52)
Death, Hazard Ratio (95% CI) (colchicine vs placebo, ITT): 0.98 (0.64-1.49)
Deep venous thrombosis or pulmonary embolus, Hazard Ratio (95% CI) (colchicine vs placebo, ITT): 1.43 (0.54-3.75)
Myocardial infarction, Hazard Ratio (95% CI) (colchicine vs placebo, ITT): 0.91 (0.68-1.21)
Resuscitated cardiac arrest, Hazard Ratio (95% CI) (colchicine vs placebo, ITT): 0.83 (0.25-2.73)
Secondary composite end point, Hazard Ratio (95% CI) (colchicine vs placebo, ITT): 0.85 (0.66-1.10)
Stroke, Hazard Ratio (95% CI) (colchicine vs placebo, ITT): 0.26 (0.10-0.70)
Total primary endpoint events, Hazard Ratio (95% CI), Andersen-Gill model (colchicine vs placebo, ITT): 0.69 (0.54; 0.88)
Total primary endpoint events, Hazard Ratio (95% CI), WLW model 1st Event (colchicine vs placebo, ITT): 0.77 (0.61; 0.96)
Total primary endpoint events, Hazard Ratio (95% CI), WLW model 2nd Event (colchicine vs placebo, ITT): 0.73 (0.48; 1.11)
Total primary endpoint events, Hazard Ratio (95% CI), WLW model 3rd Event (colchicine vs placebo, ITT): 0.64 (0.37; 1.10)
Total primary endpoint events, Hazard Ratio (95% CI), WLW model Average (colchicine vs placebo, ITT): 0.77 (0.61; 0.96)
Urgent hospitalization for angina leading to revascularization, Hazard Ratio (95% CI) (colchicine vs placebo, ITT): 0.50 (0.31-0.81)
Total primary endpoint events, Rate Ratio (95% CI), Negative binomial model (colchicine vs placebo, ITT): 0.66 (0.51; 0.86)
Total primary endpoint events, Rate Ratio (95% CI), Negative binomial model [2]: 0.66
Primary composite end point, Hazard Ratio (95% CI) (colchicine vs placebo, ITT, time to first event): 0.77
Death from cardiovascular causes, Hazard Ratio (95% CI) [2]: 0.84
Myocardial infarction, Hazard Ratio (95% CI) [2]: 0.91
Resuscitated cardiac arrest, Hazard Ratio (95% CI) [2]: 0.83
Secondary composite end point, Hazard Ratio (95% CI) [2]: 0.85
Stroke, Hazard Ratio (95% CI) [2]: 0.26
Urgent hospitalization for angina leading to revascularization, Hazard Ratio (95% CI) [2]: 0.50
Primary endpoint, hazard ratio (colchicine vs placebo, men, per-protocol population): 0.70 (0.52; 0.93)
MI, Hazard Ratio (95% CI) [3]: 0.84 (0.62-1.14)
Primary endpoint, Hazard Ratio (95% CI) [3]: 0.71 (0.56-0.90)
Resuscitated cardiac arrest, Hazard Ratio (95% CI) [3]: 1.00 (0.29-3.46)
Stroke, Hazard Ratio (95% CI) [3]: 0.26 (0.10-0.71)
Urgent hospitalization for angina requiring revascularization, Hazard Ratio (95% CI) [3]: 0.47 (0.28-0.78)
Primary endpoint, Hazard Ratio (95% CI) (colchicine vs placebo, per-protocol population, listed as colchicine): 0.71
Primary efficacy composite endpoint, Hazard ratio (colchicine vs placebo, subgroup Active smoker): 0.93
Primary efficacy composite endpoint, Hazard ratio (colchicine vs placebo, subgroup Female): 0.99
Primary efficacy composite endpoint, Hazard ratio (colchicine vs placebo, subgroup History of diabetes No): 0.85
Primary efficacy composite endpoint, Hazard ratio (colchicine vs placebo, subgroup History of diabetes Yes): 0.65
Primary efficacy composite endpoint, Hazard ratio (colchicine vs placebo, subgroup History of hypertension No): 0.80
Primary efficacy composite endpoint, Hazard ratio (colchicine vs placebo, subgroup History of hypertension Yes): 0.76
Primary efficacy composite endpoint, Hazard ratio (colchicine vs placebo, subgroup Male): 0.70
Primary efficacy composite endpoint, Hazard ratio (colchicine vs placebo, subgroup Non-smoker): 0.90
Primary efficacy composite endpoint, Hazard ratio (colchicine vs placebo, subgroup Previous smoker): 0.59
Primary efficacy composite endpoint, Hazard ratio (colchicine vs placebo, subgroup Prior MI No): 0.68
Primary efficacy composite endpoint, Hazard ratio (colchicine vs placebo, subgroup Prior MI Yes): 1.05
Primary efficacy composite endpoint, Hazard ratio (colchicine vs placebo, subgroup Prior PCI or CABG No): 0.72
Primary efficacy composite endpoint, Hazard ratio (colchicine vs placebo, subgroup Prior PCI or CABG Yes): 0.91
Primary efficacy composite endpoint, Hazard ratio (colchicine vs placebo, subgroup Prior stroke or TIA No): 0.76
Primary efficacy composite endpoint, Hazard ratio (colchicine vs placebo, subgroup Prior stroke or TIA Yes): 1.09
Primary efficacy composite endpoint, Hazard ratio (colchicine vs placebo, subgroup White blood cell count Above median): 0.80
Primary efficacy composite endpoint, Hazard ratio (colchicine vs placebo, subgroup White blood cell count Below median): 0.85
Primary endpoint, hazard ratio (colchicine vs placebo, women, per-protocol population): 0.81 (0.47; 1.41)
MI, % [4]: 3.4%
MI, no. of patients [4]: 77
Primary endpoint, % of patients [4]: 5.1%
Primary endpoint, no. of patients [4]: 115
Resuscitated cardiac arrest, % [4]: 0.2%
Resuscitated cardiac arrest, no. of patients [4]: 5
Stroke, % [4]: 0.2%
Stroke, no. of patients [4]: 5
Urgent hospitalization for angina requiring revascularization, % [4]: 1.0%
Urgent hospitalization for angina requiring revascularization, no. of patients [4]: 22
Primary efficacy composite endpoint, % of patients with event (subgroup Active smoker): 5.4%
Primary efficacy composite endpoint, no. of patients with event (subgroup Active smoker, total 708): 38
Primary efficacy composite endpoint, % of patients with event (subgroup Female): 7.8%
Primary efficacy composite endpoint, no. of patients with event (subgroup Female, total 472): 37
Primary efficacy composite endpoint, % of patients with event (subgroup History of diabetes No): 4.8%
Primary efficacy composite endpoint, no. of patients with event (subgroup History of diabetes No, total 1904): 91
Primary efficacy composite endpoint, % of patients with event (subgroup History of diabetes Yes): 8.7%
Primary efficacy composite endpoint, no. of patients with event (subgroup History of diabetes Yes, total 462): 40
Primary efficacy composite endpoint, % of patients with event (subgroup History of hypertension No): 4.1%
Primary efficacy composite endpoint, no. of patients with event (subgroup History of hypertension No, total 1181): 48
Primary efficacy composite endpoint, % of patients with event (subgroup History of hypertension Yes): 7.0%
Primary efficacy composite endpoint, no. of patients with event (subgroup History of hypertension Yes, total 1185): 83
Primary efficacy composite endpoint, % of patients with event (subgroup Male): 5.0%
Primary efficacy composite endpoint, no. of patients with event (subgroup Male, total 1894): 94
Primary efficacy composite endpoint, % of patients with event (subgroup Non-smoker): 6.0%
Primary efficacy composite endpoint, no. of patients with event (subgroup Non-smoker, total 787): 47
Primary efficacy composite endpoint, % of patients with event (subgroup Previous smoker): 5.3%
Primary efficacy composite endpoint, no. of patients with event (subgroup Previous smoker, total 871): 46
Primary efficacy composite endpoint, % of patients with event (subgroup Prior MI No): 4.3%
Primary efficacy composite endpoint, no. of patients with event (subgroup Prior MI No, total 1996): 85
Primary efficacy composite endpoint, % of patients with event (subgroup Prior MI Yes): 12.4%
Primary efficacy composite endpoint, no. of patients with event (subgroup Prior MI Yes, total 370): 46
Primary efficacy composite endpoint, % of patients with event (subgroup Prior PCI or CABG No): 4.3%
Primary efficacy composite endpoint, no. of patients with event (subgroup Prior PCI or CABG No, total 1947): 83
Primary efficacy composite endpoint, % of patients with event (subgroup Prior PCI or CABG Yes): 11.5%
Primary efficacy composite endpoint, no. of patients with event (subgroup Prior PCI or CABG Yes, total 419): 48
Primary efficacy composite endpoint, % of patients with event (subgroup Prior stroke or TIA No): 5.3%
Primary efficacy composite endpoint, no. of patients with event (subgroup Prior stroke or TIA No, total 2311): 123
Primary efficacy composite endpoint, % of patients with event (subgroup Prior stroke or TIA Yes): 14.5%
Primary efficacy composite endpoint, no. of patients with event (subgroup Prior stroke or TIA Yes, total 55): 8
Primary efficacy composite endpoint, % of patients with event (subgroup White blood cell count Above median): 5.3%
Primary efficacy composite endpoint, no. of patients with event (subgroup White blood cell count Above median, total 637): 34
Primary efficacy composite endpoint, % of patients with event (subgroup White blood cell count Below median): 6.2%
Primary efficacy composite endpoint, no. of patients with event (subgroup White blood cell count Below median (8.64 × 10^3/μL), total 660): 41
